One data set has as its system RG2 cells. Put plainly: Toxicity tests for photothermal therapy in RG2 cells.
In data set [1] the test system is in vivo tumors (RG2 cells). Put plainly: Relative tumor volume after treatment with NIR irradiation. The conditions noted are these: mice, 24 hours after the treatment. On the procedure:
In Experimental example 7, the targeting efficiency of the drug carrier of the present invention was tested by experiments on in vivo tumors (RG2 cells) of mice. The tumor temperature was also observed while undergoing NIR irradiation. Further, the effects on the volume of the tumors and the mass of the mice were observed through different conditions of treatment.
Referring to FIG. 15A, which is a relative tumor volume vs. time graph of mice after treated by different conditions. The treating conditions were PBS+NIR irradiation, pure DOX+NIR irradiation, non-drug loaded carriers+NIR irradiation, and carriers loaded with DOX+NIR irradiation, and changes in the relative tumor volume along time of which are represented by lines 910, 920, 930, and 940, respectively. The relative tumor volume was observed after 24 hours later of the treatment, and used the tumor volume right after the treatment as a base. […] As for the treatments of the PBS+NIR irradiation, i.e. line 910, and the pure DOX+NIR irradiation, i.e. line 920, the tumor volumes were increased. […] The treatment of the PBS+NIR irradiation, i.e. line 910, could not treat the tumor because there was no drug being injected. The treatment of the pure DOX+NIR irradiation, i.e. line 920, was difficult to reach the tumor region to have the effect of therapy because the drug was not encapsulated in carriers. […]

A short description of data set [2]: Mass of mice after treatment. It counts as in vivo. Particulars: with NIR irradiation. An excerpt: Further, referring to FIG. 15B, which is a mass vs. time graph of mice after treated by different conditions. The treating conditions were PBS+NIR irradiation, pure DOX+NIR irradiation, non-drug loaded carriers+NIR irradiation, and carriers loaded with DOX+NIR irradiation, and changes in the mass of the mice along time of which are represented by lines 950, 960, 970, and 980, respectively.

The structures appear in SMILES notation. ≈ marks a conversion by molar mass, not a printed value.

For the molecule `COc1cccc2c1C(=O)c1c(O)c3c(c(O)c1C2=O)C[C@@](O)(C(=O)CO)C[C@@H]3O[C@H]1C[C@H](N)[C@H](O)[C@H](C)O1` [DOX, doxorubicin], in the data set with RG2 cells (RG2 cells, pure DOX 0.25 μg/mL (bar 840)), the cell death result is “about 50%”. The “cell viability at 0.05 μg/mL DOX compared with 0.25 μg/mL” value in the data set with RG2 cells (RG2 cells, without NIR irradiation (bars 870, 880)) was “increased”. Besides, in the data set with RG2 cells (Rattus norvegicus, RG2, read-out: half maximal inhibitory concentration (IC50)), the IC50 was around 0.25 µg/mL (≈ 0.46 µM). In data set [1], the relative tumor volume entry is “increased”. In addition, the “mass of mice over time” value in data set [2] was “no obvious difference in mass”.

The values are drawn from US20160089443A1, “PROTEIN-GRAPHENE NANOCOMPOSITE DRUG CARRIER” (NATIONAL CHIAO TUNG UNIVERSITY, priority 2014, published 2016).
